Measurements as given in patent publication US4532240A, “Diaminopyrimidines” (Warner-Lambert Company, priority 1983, dated 1985).
Several values for one entry are separate records, joined by “and”; a condition that tells them apart may be missing. Identical values can stand only once. Counter-ions that a name gives are not always drawn.

Tests used:
P388 Leukemia = experiment: In vivo lymphocytic leukemia P388 test in mice; design: species or system CD2 F1 mice; conditions: intraperitoneal, two single doses four days apart
Procedure: The in vivo lymphocytic leukemia P388 test is carried out using the test system of the United States National Cancer Institute. The animals used are either male or female CD2 F1 mice. There are six to seven animals per test group. The tumor transplant is by intraperitoneal injection of dilute ascitic fluid containing cells of lymphocytic leukemia P388. The test compounds are administered intraperitoneally in two single doses with a four-day interval between doses at various dose levels following tumor inoculation. The animals are weighed and survivors are recorded on a regular basis for 30 days. A ratio of survival time for treated (T)/control (C) animals is calculated. The criterion for efficacy is T/C×100>125%. The positive control compound in this test is 5-fluorouracil. See Cancer Chemotherapy Reports, Part 3, 3, 1 (1972) for a comprehensive discussion of the protocol.

L1210 cells = experiment: In vitro antitumor screening on L1210 murine leukemia cell line (growth, Coulter counter); type: cell-based; conditions: Mus musculus, L1210, 72 h; three days, 37° C., 5% CO2; read-out: L1210 Leukemia in vitro ID50
Procedure: L1210 cells, a murine leukemia cell line, were grown in RPMI 1640 supplemented with 5% fetal bovine serum and gentamicin (50 μg/ml).
Drug dilutions were prepared in the appropriate solvent and 20 μl of each dilution were added to 24-well Linbro tissue culture plates, followed by the addition of M 2.0 ml of cell suspension containing 3×10^4cells per ml. Solvent and medium controls were included in each test. After incubation at 37° C. for three days in 5% CO2, the contents of each well were removed and the cells counted in a ZBI Coulter counter. Percent growth was calculated relative to the controls and the levels of drug activity were expressed as ID50 in moles per liter using probit paper.

[1] = system: HCT-8 (human colon adenocarcinoma) cells; experiment: In vitro activity against HCT-8 human colon adenocarcinoma cells; type: cell-based; conditions: HCT-8, 60-65 hours with compound, 37° C., read-out: ID50 against human colon adenocarcinoma
Procedure: HCT-8 (human colon adenocarcinoma) cells are trypsinized using Trypsin-EDTA. A single cell suspension is achieved by passing the cells through a 26 gauge needle with a 20 cc syringe. A cell suspension is prepared using RPMI 1640+10% FCS+50 μg/ml garamycin with a cell concentration of approximately 30,000 cells/ml. The cell suspension is dispensed in Linbro 24-well plates; 1 ml/well. The plates are incubated for approximately 48 hours at 37° C. in a 5% CO2 atmosphere. At this time test compounds are added in the appropriate concentration. Five μl of the 200 μg/ml stock solution is added to each well in a primary test. Ten μl of the appropriate dilution is added to each well for a titration test. The plates are reincubated an additional 60-65 hours at 37° C. in a 5% CO2 atmosphere. The test is read by lysing the cells using a mix of cationic surfactant, glacial acetic acid and sodium chloride. […] of the lysed cell suspension from each well is added to 8 ml of diluent. Each sample is read on the Coulter counter (ZBI model). The activity of each sample is measured as a percentage of the controls and the data is reported as ID50, that is the molar quantity of drug required to kill 50% of the tumor cells.

B. subtilis = experiment: Antibacterial disk zone of inhibition, B. subtilis; type: cell-based, Bacillus subtilis 04555; conditions: Bacillus subtilis, read-out: Inhibition Zone diameter; for zone of inhibition at 100 µg/mL: 0.1 mg/ml
Procedure: (§1) Vegetative bacterial isolates are maintained on agar slants or in liquid media, hereby designated as inoculum media. The cultures are transferred at regular intervals in such media. (See Table IV for the corresponding inoculum media of each culture.) The organisms are generally transferred either onto agar slants or into liquid inoculum media and incubated at 37° C. (at 28° C. with Xanthomonas sp.) overnight (18-20 hours).
(§2) The microbial cells from the overnight agar slants are then scraped off and suspended in saline solution (0.85% NaCl). The microbial concentrations are adjusted to a light transmission of 8.6% using a PerkinElmer Model 35 spectrophotometer (550 nm). For the organisms that are maintained in liquid media, one of two procedures is followed: (1) the culture suspension is first centrifuged at 5000 rpm for five minutes. The pellet is resuspended in 0.85% saline to 8.6% light transmittancy; (2) an aliquot of the culture suspension is to be added directly to the assay medium.
Isolate spore suspensions (Bacillus sp.) are maintained at 4° C. These suspensions serve as the inoculum media for assays.
(§3) A given molten-agar assay medium, maintained in a flask at approximately 45° C., is inoculated with 0.16-10 ml of an appropriate cell or spore suspension per 100 ml of medium. Fifty ml of the inoculated medium is poured into a Bio-Assay dish (A/S Nunc; Gibco Laboratories Catalog Number 240835) and spread evenly across the bottom, then allowed to solidify at room temperature. Each agar dish is inverted and refrigerated until used.
(§4) The compounds or samples to be tested are dissolved in suitable solvents, e.g., alcohols, dimethylsulfoxide, or N,N-dimethylformamide. The samples are generally dissolved so that the final concentration of the solvent is <10%.* The compounds are tested at different concentrations: 3,000; 1,000; 500; 100; and 10 mcg/ml. Paper discs (12.7 mm diameter) saturated with a given concentration of test compound are placed onto the seeded agar dishes with a pair of forceps.
(§5) The disked agar dishes are incubated at 37° C. (28° C. for Xanthamonas sp.) for 18-20 hours. Active compounds show a zone of inhibition around the disc. The diameter of the zone is measured in mm. The zone diameter of active compounds ranges from a minimum of 13.5 mm to as high as 60 mm. The size of the zone diameter generally reflects the activity of the compound: the larger the zone the greater the activity.

X. phaseoli = experiment: Antibacterial disk zone of inhibition, X. phaseoli; type: cell-based, Xanthomonas phascoli 06002; conditions: Xanthomonas; 3.0 mg/ml; read-out: Inhibition Zone diameter
Procedure: as §1, §2, §3, §4, §5

B. catarrhalis = experiment: Antibacterial disk zone of inhibition, B. catarrhalis; type: cell-based, Branhamella catarrhalis 03596; conditions: Moraxella catarrhalis; 0.01 mg/ml; read-out: Inhibition Zone diameter
Procedure: as §1, §2, §3, §4, §5

S. lutea = experiment: Antibacterial disk zone of inhibition, S. lutea (as headed); type: cell-based, Micrococcus luteus 05064; conditions: Micrococcus luteus, read-out: Inhibition Zone diameter
Procedure: as §1, §2, §3, §4, §5

M. faecalis = experiment: Antibacterial disk zone of inhibition, M. faecalis (as headed); type: cell-based, Streptococcus faecalis 05045; conditions: Enterococcus faecalis, read-out: Inhibition Zone diameter
Procedure: as §1, §2, §3, §4, §5

With `Cc1nc(N)nc(N)c1N1CCN(c2ccc(C(=O)O)cc2)CC1.Cl` [Example 1, 4-[4-(2,4-Diamino-6-methyl-5-pyrimidinyl)-1-piperazinyl]benzoic acid hydrochloride] the “T/C × 100” value (P388 Leukemia; 6.25 mg/kg, listed as CH3, H, H, 4-CO2 H, hydrochloride) was 141% and 146%, the “T/C × 100” value (P388 Leukemia; 12.5 mg/kg, listed as CH3, H, H, 4-CO2 H, hydrochloride) was 179% and 227% and the “T/C × 100” value (P388 Leukemia; 25 mg/kg) was 137%. For the same compound, the “T/C × 100” value (P388 Leukemia; 50 mg/kg) was 258% and the “survival rate after 30 days” value (P388 Leukemia; 50 mg/kg) was 3/6.
With `Cc1nc(N)nc(N)c1N1CCN(c2ccc(C(=O)N[C@@H](CCC(=O)O)C(=O)O)cc2)CC1` [Example 3, N-[4-[4-(2,4-diamino-6-methyl-5-pyrimidinyl)-1-piperazinyl]benzoyl]-L-glutamic acid] the “T/C × 100” value (P388 Leukemia; 6.25 mg/kg, listed as CH3, H, H, 4-CONHCH(CO2 H)CH2 CH2 CO2 H) was 144% and 137%, the “T/C × 100” value (P388 Leukemia; 12.5 mg/kg, listed as CH3, H, H, 4-CONHCH(CO2 H)CH2 CH2 CO2 H) was 155% and 168% and the “T/C × 100” value (P388 Leukemia; 25 mg/kg, listed as CH3, H, H, 4-CONHCH(CO2 H)CH2 CH2 CO2 H) was 172% and 167%. The “T/C × 100” value (P388 Leukemia; 50 mg/kg) was 222% and the “T/C × 100” value (P388 Leukemia; 50 mg/kg, listed as CH3, H, H, 4-CONHCH(CO2 H)CH2 CH2 CO2 H) was 188%.
Compound `Cc1nc(N)nc(N)c1N1CCN(c2ccc([N+](=O)[O-])cc2)CC1` [Example 4, 6-Methyl-5-[4-(4-nitrophenyl)-1-piperazinyl]-2,4-pyrimidinediamine, hydrate (10:1)] has an IC50 (L1210 cells) of 15 nM and an IC50 [1] of over 1000 nM.
For `CCOC(=O)c1ccc(N2CCN(c3c(C)nc(N)nc3N)CC2)cc1` [Example 6, 4-[4-(2,4-Diamino-6-methyl-5-pyrimidinyl)-1-piperazinyl]benzoic acid, ethyl ester], the IC50 (L1210 cells) was 5 nM and the IC50 [1] was 49 nM.
For `CNC(=O)c1ccc(N2CCN(c3c(C)nc(N)nc3N)CC2)cc1` [Example 7, 4-[4-(2,4-Diamino-6-methyl-5-pyrimidinyl)-1-piperazinyl]-N-methyl benzamide, hydrate (100:45)], the IC50 (L1210 cells) was 2.5 nM and the IC50 [1] was 67 nM.
`COC(=O)CNC(=O)c1ccc(N2CCN(c3c(C)nc(N)nc3N)CC2)cc1` [Example 8, N-[4-[4-(2,4-Diamino-6-methyl-5-pyrimidinyl)-1-piperazinyl]benzoyl]glycine,methyl ester] was tested, and the IC50 (L1210 cells) was 17 nM and the IC50 [1] was 800 nM.
In the case of `CCc1nc(N)nc(N)c1N1CCN(c2ccc(C#N)cc2)CC1` [Example 10, 5-[4-(4-cyanophenyl)-1-piperazinyl]-6-ethyl-2,4-pyrimidinediamine], the “T/C × 100” value (P388 Leukemia; 50 mg/kg) is reported as 126%, the IC50 (L1210 cells) is reported as 7.7 nM and the IC50 [1] is reported as 89 nM.
Work on `CCCc1nc(N)nc(N)c1N1CCN(c2ccc(C#N)cc2)CC1` [Example 14, 5-[4-(4-cyanophenyl)-1-piperazinyl]-6-propyl-2,4-pyrimidinediamine] yielded an IC50 (L1210 cells) of 8.9 nM and an IC50 [1] of 120 nM.
`Cc1nc(N)nc(N)c1N1CCN(c2ccccc2)CC1` [Example 20, 6-Methyl-5-(4-phenyl-1-piperazinyl)-2,4-pyrimidinediamine, hydrochloride (5:1)] gave an IC50 (L1210 cells) of 150 nM.
With `Cc1nc(N)nc(N)c1N1CCN(c2ccc(Cl)cc2)CC1` [Example 21, 5-[4-(4-chlorophenyl)-1-piperazinyl]-6-methyl-2,4-pyrimidinediamine] the IC50 (L1210 cells) was 28 nM and the IC50 [1] was 350 nM.
With `Cc1nc(N)nc(N)c1N1CCN(c2ccc(N)cc2)CC1` [Example 22] the IC50 (L1210 cells) was 80 nM.
`CCOC(=O)CCC(NC(=O)c1ccc(N2CCN(c3c(N)nc(N)nc3CC)CC2)cc1)C(=O)OCC` (stereo not drawn) [drawing 10] was tested, and the IC50 (L1210 cells) was 3.2 nM.
`CCc1nc(N)nc(N)c1N1CCN(c2ccc(C(=O)NC(CCC(=O)O)C(=O)O)cc2)CC1` (stereo not drawn) [drawing 11] gave an IC50 (L1210 cells) of 2000 nM.
`CCCc1nc(N)nc(N)c1N1CCN(c2ccc(C(=O)NC(CCC(=O)O)C(=O)O)cc2)CC1` (stereo not drawn) [drawing 13] was tested, and the IC50 (L1210 cells) was 7.5 nM.
`CCOC(=O)CCC(NC(=O)c1ccc(N2CCN(c3c(N)nc(N)nc3CC)CC2)cc1)C(=O)OCC` (stereo not drawn) [drawing 15] showed an IC50 [1] of 26 nM.
`CCc1nc(N)nc(N)c1N1CCN(c2ccc(C(=O)NC(CCC(=O)O)C(=O)O)cc2)CC1` (stereo not drawn) [drawing 16] showed an IC50 [1] of 120 nM.
With `CCCc1nc(N)nc(N)c1N1CCN(c2ccc(C(=O)NC(CCC(=O)O)C(=O)O)cc2)CC1` (stereo not drawn) [drawing 17] the IC50 [1] was 85 nM.
In the case of `CCOC(=O)CCC(NC(=O)c1ccc(N2CCN(c3c(N)nc(N)nc3CC)CC2)cc1)C(=O)OCC` (stereo not drawn) [drawing 19], the “T/C × 100” value (P388 Leukemia; 6.25 mg/kg) is reported as 163%, the “T/C × 100” value (P388 Leukemia; 12.5 mg/kg) is reported as 183% and the “T/C × 100” value (P388 Leukemia; 25 mg/kg) is reported as 241%. The “survival rate after 30 days” value (P388 Leukemia; 25 mg/kg) was 2/6, the “T/C × 100” value (P388 Leukemia; 50 mg/kg) was 258% and the “survival rate after 30 days” value (P388 Leukemia; 50 mg/kg) was 5/6.
`Cc1nc(N)nc(N)c1N1CCN(c2ccc(C(=O)N[C@@H](CCC(=O)O)C(=O)O)cc2)CC1` [drawing 21] gave a zone of inhibition at 10 µg/mL (B. subtilis; 0.01 mg/ml) of 22 mm, a zone of inhibition at 3000 µg/mL (X. phaseoli) of 0 mm and a zone of inhibition at 10 µg/mL (B. catarrhalis) of 25 mm. The zone of inhibition at 3000 µg/mL (S. lutea; 3.0 mg/ml) was 0 mm and the zone of inhibition at 3000 µg/mL (M. faecalis; 3.0 mg/ml) was 0 mm.
`CCOC(=O)CCC(NC(=O)c1ccc(N2CCN(c3c(N)nc(N)nc3CC)CC2)cc1)C(=O)OCC` (stereo not drawn) [drawing 22] was tested, and the zone of inhibition at 100 µg/mL (B. subtilis) was 19 mm, the zone of inhibition at 3000 µg/mL (X. phaseoli) was 3 mm and the zone of inhibition at 10 µg/mL (B. catarrhalis) was 20 mm. For the same compound, the zone of inhibition at 10 µg/mL (S. lutea; 0.01 mg/ml) was 19 mm and the zone of inhibition at 10 µg/mL (M. faecalis; 0.01 mg/ml) was 15 mm.
In the case of `CCc1nc(N)nc(N)c1N1CCN(c2ccc(C(=O)NC(CCC(=O)O)C(=O)O)cc2)CC1` (stereo not drawn) [drawing 23], the zone of inhibition at 100 µg/mL (B. subtilis) is reported as 20 mm, the zone of inhibition at 3000 µg/mL (X. phaseoli) is reported as 15 mm and the zone of inhibition at 10 µg/mL (B. catarrhalis) is reported as 14 mm. The zone of inhibition at 500 µg/mL (S. lutea; 0.5 mg/ml) was 14 mm and the zone of inhibition at 100 µg/mL (M. faecalis; 0.1 mg/ml) was 14 mm.
